Source: ChEMBL document CHEMBL5036317, “Identification of Unique Quinazolone Thiazoles as Novel Structural Scaffolds for Potential Gram-Negative Bacterial Conquerors” (J Med Chem, 2021)
Converted amounts (≈) assume the structure as drawn.

Experiments:
Enterococcus faecalis = assay: Antibacterial activity against Enterococcus faecalis assessed as inhibition of bacterial growth measured after 24 hrs by two-fold serial dilution method; type: functional
Pseudomonas aeruginosa [1] = assay: Antibacterial activity against Pseudomonas aeruginosa assessed as inhibition of bacterial growth measured after 24 hrs by two-fold serial dilution method; type: functional
Escherichia coli [2] = assay: Antibacterial activity against Escherichia coli ATCC 25922 assessed as inhibition of bacterial growth measured after 24 hrs by two-fold serial dilution method; type: functional
Staphylococcus aureus [3] = assay: Antibacterial activity against Staphylococcus aureus ATCC 29213 assessed as inhibition of bacterial growth measured after 24 hrs by two-fold serial dilution method; type: functional
Pseudomonas aeruginosa [4] = assay: Antibacterial activity against Pseudomonas aeruginosa ATCC 27853 assessed as inhibition of bacterial growth measured after 24 hrs by two-fold serial dilution method; type: functional
Acinetobacter baumannii = assay: Antibacterial activity against Acinetobacter baumanii assessed as inhibition of bacterial growth measured after 24 hrs by two-fold serial dilution method; type: functional
Staphylococcus aureus [5] = assay: Antibacterial activity against Staphylococcus aureus ATCC 25923 assessed as inhibition of bacterial growth measured after 24 hrs by two-fold serial dilution method; type: functional
Klebsiella pneumoniae = assay: Antibacterial activity against Klebsiella pneumoniae assessed as inhibition of bacterial growth measured after 24 hrs by two-fold serial dilution method; type: functional
[6] = Haemolytic activity in human erythrocytes incubated for 2 hrs; type: ADME, cell-based, Erythrocyte
Escherichia coli [7] = assay: Antibacterial activity against Escherichia coli assessed as inhibition of bacterial growth measured after 24 hrs by two-fold serial dilution method; type: functional
Staphylococcus aureus [8] = assay: Antibacterial activity against Staphylococcus aureus assessed as inhibition of bacterial growth measured after 24 hrs by two-fold serial dilution method; type: functional
Staphylococcus aureus [9] = assay: Antibacterial activity against methicillin-resistant Staphylococcus aureus assessed as inhibition of bacterial growth measured after 24 hrs by two-fold serial dilution method; type: functional

Structure (SMILES)	MIC (Enterococcus faecalis) [µg/mL]	MIC (Pseudomonas aeruginosa [1]) [µg/mL]	MIC (Escherichia coli [2]) [µg/mL]	MIC (Staphylococcus aureus [3]) [µg/mL]	MIC (Pseudomonas aeruginosa [4]) [µg/mL]	MIC (Acinetobacter baumannii) [µg/mL]	MIC (Staphylococcus aureus [5]) [µg/mL]	MIC (Klebsiella pneumoniae) [µg/mL]	HC50 at 2 h [6] [µg/mL]	MIC (Escherichia coli [7]) [µg/mL]	MIC (Staphylococcus aureus [8]) [µg/mL]	MIC (Staphylococcus aureus [9]) [µg/mL]
CCn1cc(/C=C(/C(=O)c2nccs2)n2cnc3cc(Cl)ccc3c2=O)c2ccccc21	512 (≈ 1110 µM)	128 (≈ 278 µM)	512 (≈ 1110 µM)	1 (≈ 2.17 µM)	32 (≈ 69.4 µM)	128 (≈ 278 µM)	512 (≈ 1110 µM)	512 (≈ 1110 µM)	> 250	512 (≈ 1110 µM)	512 (≈ 1110 µM)	512 (≈ 1110 µM)
O=C(/C(=C/c1ccc([N+](=O)[O-])cc1)n1cnc2cc(Cl)ccc2c1=O)c1nccs1	2 (≈ 4.56 µM)	4 (≈ 9.11 µM)	2 (≈ 4.56 µM)	2 (≈ 4.56 µM)	4 (≈ 9.11 µM)	4 (≈ 9.11 µM)	4 (≈ 9.11 µM)	16 (≈ 36.5 µM)	> 250	64 (≈ 146 µM)	2 (≈ 4.56 µM)	8 (≈ 18.2 µM)
O=C(/C(=C/c1ccc(C(F)(F)F)cc1)n1cnc2cc(F)ccc2c1=O)c1nccs1	4 (≈ 8.98 µM)	16 (≈ 35.9 µM)	4 (≈ 8.98 µM)	4 (≈ 8.98 µM)	4 (≈ 8.98 µM)	1 (≈ 2.25 µM)	2 (≈ 4.49 µM)	2 (≈ 4.49 µM)	> 250	8 (≈ 18 µM)	16 (≈ 35.9 µM)	8 (≈ 18 µM)
O=C(/C(=C/c1ccccc1Cl)n1cnc2cc(Cl)ccc2c1=O)c1nccs1	1 (≈ 2.33 µM)	2 (≈ 4.67 µM)	2 (≈ 4.67 µM)	4 (≈ 9.34 µM)	2 (≈ 4.67 µM)	512 (≈ 1200 µM)	1 (≈ 2.33 µM)	4 (≈ 9.34 µM)	195	8 (≈ 18.7 µM)	16 (≈ 37.4 µM)	2 (≈ 4.67 µM)
Cc1ccc2c(/C=C(/C(=O)c3nccs3)n3cnc4cc(Cl)ccc4c3=O)c[nH]c2c1	64 (≈ 143 µM)	64 (≈ 143 µM)	16 (≈ 35.8 µM)	32 (≈ 71.6 µM)	8 (≈ 17.9 µM)	8 (≈ 17.9 µM)	32 (≈ 71.6 µM)	64 (≈ 143 µM)	> 250	128 (≈ 286 µM)	512 (≈ 1150 µM)	32 (≈ 71.6 µM)
Cc1ccc(/C=C(/C(=O)c2nccs2)n2cnc3cc(Cl)ccc3c2=O)cc1	8 (≈ 19.6 µM)	4 (≈ 9.81 µM)	1 (≈ 2.45 µM)	4 (≈ 9.81 µM)	1 (≈ 2.45 µM)	1 (≈ 2.45 µM)	2 (≈ 4.9 µM)	128 (≈ 314 µM)	> 250	32 (≈ 78.5 µM)	4 (≈ 9.81 µM)	64 (≈ 157 µM)
O=C(/C(=C/c1c[nH]c2ccccc12)n1cnc2cc(Cl)ccc2c1=O)c1nccs1	256 (≈ 591 µM)	256 (≈ 591 µM)	64 (≈ 148 µM)	64 (≈ 148 µM)	64 (≈ 148 µM)	256 (≈ 591 µM)	64 (≈ 148 µM)	128 (≈ 296 µM)	> 250	64 (≈ 148 µM)	64 (≈ 148 µM)	256 (≈ 591 µM)
O=C(/C(=C/c1ccccc1)n1cnc2cc(Cl)ccc2c1=O)c1nccs1	1 (≈ 2.54 µM)	4 (≈ 10.2 µM)	4 (≈ 10.2 µM)	2 (≈ 5.08 µM)	2 (≈ 5.08 µM)	4 (≈ 10.2 µM)	2 (≈ 5.08 µM)	2 (≈ 5.08 µM)	222	8 (≈ 20.3 µM)	8 (≈ 20.3 µM)	4 (≈ 10.2 µM)
O=C(/C(=C/c1cccc(Cl)c1)n1cnc2cc(Cl)ccc2c1=O)c1nccs1	128 (≈ 299 µM)	32 (≈ 74.7 µM)	4 (≈ 9.34 µM)	8 (≈ 18.7 µM)	4 (≈ 9.34 µM)	1 (≈ 2.33 µM)	8 (≈ 18.7 µM)	128 (≈ 299 µM)	> 250	4 (≈ 9.34 µM)	32 (≈ 74.7 µM)	8 (≈ 18.7 µM)
O=C(/C(=C/c1c[nH]c2cc(Cl)ccc12)n1cnc2cc(Cl)ccc2c1=O)c1nccs1	2 (≈ 4.28 µM)	256 (≈ 548 µM)	2 (≈ 4.28 µM)	2 (≈ 4.28 µM)	64 (≈ 137 µM)	512 (≈ 1100 µM)	2 (≈ 4.28 µM)	64 (≈ 137 µM)	> 250	64 (≈ 137 µM)	512 (≈ 1100 µM)	32 (≈ 68.5 µM)
O=C(/C(=C/c1ccc(F)cc1)n1cnc2cc(Cl)ccc2c1=O)c1nccs1	4 (≈ 9.71 µM)	2 (≈ 4.86 µM)	4 (≈ 9.71 µM)	2 (≈ 4.86 µM)	2 (≈ 4.86 µM)	256 (≈ 622 µM)	4 (≈ 9.71 µM)	512 (≈ 1240 µM)	> 250	16 (≈ 38.8 µM)	8 (≈ 19.4 µM)	4 (≈ 9.71 µM)
O=C(/C(=C/c1csc2ccccc12)n1cnc2cc(Cl)ccc2c1=O)c1nccs1	512 (≈ 1140 µM)	32 (≈ 71.1 µM)	16 (≈ 35.6 µM)	16 (≈ 35.6 µM)	16 (≈ 35.6 µM)	32 (≈ 71.1 µM)	256 (≈ 569 µM)	128 (≈ 284 µM)	> 250	16 (≈ 35.6 µM)	512 (≈ 1140 µM)	512 (≈ 1140 µM)
O=C(/C(=C/c1ccc[nH]1)n1cnc2cc(Cl)ccc2c1=O)c1nccs1	512 (≈ 1340 µM)	256 (≈ 669 µM)	64 (≈ 167 µM)	2 (≈ 5.22 µM)	256 (≈ 669 µM)	64 (≈ 167 µM)	512 (≈ 1340 µM)	256 (≈ 669 µM)	203	256 (≈ 669 µM)	512 (≈ 1340 µM)	512 (≈ 1340 µM)
